# Like-named read-outs stand apart in the source and are kept apart here.
# Experiments:
# [1] = biological target: T1, recombinant variant E. indica PPO1 A212T (Eleusine indica, UniProt A0A6G5XNV7, A212T); assay: In vitro PPO enzyme activity inhibition, variant PPO1 A212T; assay type: biochemical; conditions: for inhibition at 10 µM: read-out: Variant E. indica PPO1 A212T % inhibition
# From the text: (§1) Effects of A212T substitution were studied using the E. indica backbone. The wild-type E. indica PPO1 and the E. indica PPO1 A212T variants were synthesized de novo and subcloned into pRSetB plasmid (Invitrogen, Carlsbad, Calif.). The complete description of expression and purification of E. indica PPO1 and E. indica PPO1 A212T variant proteins were referenced to the method described for PPO2 by Rangani et al. (2019, Frontiers in Plant Sci., 10:568). Six PPO inhibitors, belonging to five different chemical families, were evaluated on the PPO enzyme activity at a concentrations ranging from 5.00×10^−5M to 5.12×10^−12M. Oxadiazon, sulfentrazone, saflufenacil and lactofen are from the class of oxadiazole, triazolinone, pyrimidinedione, and diphenyl ether, respectively. Flumioxazin and trifludimoxazin are from the same chemical family, N-phenylphthalimide. […] The assay was replicated twice.
# [2] = biological target: T2, recombinant wild-type E. indica PPO1 (Eleusine indica, UniProt A0A6G5XNV7); assay: In vitro PPO enzyme activity inhibition, wild-type PPO1; assay type: biochemical; conditions: for Wild-type E. indica PPO1 % inhibition / inhibition at 10 µM: highest herbicide concentration 10^−5 M
# T2 sequence (A0A6G5XNV7 1-529): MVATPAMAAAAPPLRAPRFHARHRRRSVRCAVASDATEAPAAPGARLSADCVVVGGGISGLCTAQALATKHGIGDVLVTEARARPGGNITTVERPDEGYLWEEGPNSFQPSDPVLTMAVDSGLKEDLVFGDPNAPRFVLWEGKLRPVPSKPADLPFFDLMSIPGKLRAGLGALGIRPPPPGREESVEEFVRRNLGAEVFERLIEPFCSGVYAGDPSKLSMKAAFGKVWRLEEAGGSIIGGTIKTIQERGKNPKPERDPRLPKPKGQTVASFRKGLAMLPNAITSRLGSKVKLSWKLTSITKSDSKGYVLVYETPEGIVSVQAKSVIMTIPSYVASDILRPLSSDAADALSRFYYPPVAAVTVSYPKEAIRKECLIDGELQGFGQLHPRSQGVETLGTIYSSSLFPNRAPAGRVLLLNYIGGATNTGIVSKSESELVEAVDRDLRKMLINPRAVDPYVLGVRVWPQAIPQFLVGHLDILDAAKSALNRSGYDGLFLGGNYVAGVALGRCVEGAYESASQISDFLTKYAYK
# From the text: as §1, with “Six PPO inhibitors, belonging to five different chemical families, were evaluated on the PPO enzyme activity at a concentrations ranging from 5.00×10^−5M to 5.12×10^−12M.” left out
# [3] = tested on: Eleusine indica biotypes (S, R1, R2); assay: Herbicide rate screening assay (greenhouse, foliar-applied, visual injury); assay type: in vivo; conditions: for I50, estimated rate required to reduce Eleusine indica biotype by 50% (Visual Control/Injury) / I90, estimated rate required to reduce Eleusine indica biotype by 90% (Visual Control/Injury): injury scores 14 days after treatment; for Parameter estimate a of sigmoidal model y = a/(1 + exp(−(x − x0)/b)) for percent injury / Parameter estimate b of sigmoidal model y = a/(1 + exp(−(x − x0)/b)) for percent injury / Parameter estimate x0 of sigmoidal model y = a/(1 + exp(−(x − x0)/b)) for percent injury: x = log-transformed herbicide rate (kg/ha), 14 DAT
# From the text: Three E. indica biotypes from different locations were used in this study. The R1 biotype was collected in Country Club of Virginia, Richmond, Va., and the R2 biotype was from River Bend Golf, New Bern, N.C. These two biotypes were previous confirmed resistant to preemergence application of oxadiazon, but have not been screened to other PPO inhibitors. The S biotype was collected from the Alabama Agricultural Experiment Station, Plant Breeding Unit, Tallassee, Ala., which was confirmed susceptible to PPO inhibitors. Seeds of the mature plants were harvested, air dried and stored in the 4° C. freezer until planted in the greenhouse.
# Greenhouse conditions were 30±3° C. at day/night temperature and ˜70% average relative humidity. The E. indica seeds were placed on the soil surface and lightly covered with sand in 28 cm*20 cm flats and watered as needed daily to ensure germination. Two weeks after emergence, seedlings were separated and transplanted to in individual 10-cm pots (volumes=0.5 L). Pots were filled with surface horizon of Marvyn sandy loam (fine-loamy, kaolinitic, thermic Typic Kanhapludults) soil with pH 6.4 and 1.2% organic matter. The plants were irrigated three times daily for 2 min with overhead irrigation and fertilized once at one week after transplanting at approximately 50 kg N ha^−1 with Scott's Miracle-Gro All-Purpose fertilizer (The Scotts Miracle-Gro Co. Marysville, Ohio). Plants were 5-10 cm in height with 3-5 tillers in size at the time of herbicide treatment.
# Herbicide treatments were foliar-applied at 280 L/ha using an enclosed spray chamber with a single 8002E nozzle (TeeJet Spray Systems Co, Wheaton, Ill.) at 32 PSI. Four herbicides were selected for the experiment: oxadiazon (Ronstar FLO, Bayer Environmental Sci., Research Triangle Park, N.C.), sulfentrazone (Dismiss, FMC Corporation, Philadelphia, Pa.), flumioxazin (Sureguard, Valent Corp., Walnut Creek, Calif.) and lactofen (Cobra, Valent Corp., Walnut Creek, Calif.). All the herbicides are from different herbicide chemical families of PPO inhibitors: oxadiazoles, triazolinone, N-phenylphthalimide and diphenyl ether, respectively. Herbicides were applied at 7 different rates based on each herbicide label rate: oxadiazon ranging from 0.14 to 8.96 kg/ha, sulfentrazone from 0.07 to 4.50 kg/ha, flumioxazin from 0.08 to 5.70 kg/ha, and lactofen from 0.029 to 1.75 kg/ha. A non-treated control (0 kg/ha) was included. 192 plants of each biotype were tested and experiments were conducted as completely random design, three replications for two runs.
# The visual injury rating scores per plant at 14 days after treatment (DAT) were recorded, where the visual injury rating scores were based on a 0 to 100 scale, which 0 is equated to no phytotoxicity and 100 is equated to complete control. Data subjected to ANOVA analysis at a significance level of P<0.05 using the PROC GLM procedure of SAS 9.4 (SAS Institute Inc., Cary, N.C.). All the herbicide rates were log transformed to make equal spacing between the herbicide treatments in order to facilitate regression analysis. The non-treated control was transformed to equal spacing based on the log rates of each herbicide, respectively. Data were fitted to a sigmoidal model using SigmaPlot 10.2 (Systat Software Inc., London, UK) using a sigmoidal function (Equation 1).
# y=a/(1+e^(−((x−x0)/b))) (1)
# In this fit sigmoidal model, where y represents E. indica visual damage relative to non-treated control (%), x represents the log-transformed herbicide rates (kg/ha), three parameters (a, b, x0) represents the y intercept.
# [4] = biological target: T1, recombinant variant E. indica PPO1 A212T; assay: In vitro PPO enzyme activity inhibition, variant PPO1 A212T; assay type: biochemical; conditions: highest herbicide concentration 10^−5 M
# [5] = recombinant enzyme, in vitro, read-out: Wild-type E. indica PPO1 sensitivity [IC50]
# T1 sequence (A0A6G5XNV7 entry or part of it A212T): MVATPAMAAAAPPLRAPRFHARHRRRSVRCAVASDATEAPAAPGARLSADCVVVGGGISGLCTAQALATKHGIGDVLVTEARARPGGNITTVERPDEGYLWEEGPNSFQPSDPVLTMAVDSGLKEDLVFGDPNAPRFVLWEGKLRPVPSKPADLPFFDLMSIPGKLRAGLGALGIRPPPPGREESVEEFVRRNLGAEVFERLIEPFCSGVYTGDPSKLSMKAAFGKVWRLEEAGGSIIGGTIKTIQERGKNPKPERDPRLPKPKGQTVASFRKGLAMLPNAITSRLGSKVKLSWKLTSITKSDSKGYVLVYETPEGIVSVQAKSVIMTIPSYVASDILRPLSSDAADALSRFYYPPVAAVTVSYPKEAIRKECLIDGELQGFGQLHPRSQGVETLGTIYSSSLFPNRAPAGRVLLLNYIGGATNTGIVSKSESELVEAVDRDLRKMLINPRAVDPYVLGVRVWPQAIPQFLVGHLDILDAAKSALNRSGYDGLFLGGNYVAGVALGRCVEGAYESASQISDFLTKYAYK
SMILES,IC50 [1],inhibition at 10 µM [1],IC50 [2],Wild-type E. indica PPO1 % inhibition [2],inhibition at 10 µM [2],"I50, estimated rate required to reduce Eleusine indica biotype by 50% (Visual Control/Injury) ([3]; R1 biotype)","I90, estimated rate required to reduce Eleusine indica biotype by 90% (Visual Control/Injury) ([3]; R1 biotype)",Parameter estimate a of sigmoidal model y = a/(1 + exp(−(x − x0)/b)) for percent injury ([3]; R1 biotype),Parameter estimate b of sigmoidal model y = a/(1 + exp(−(x − x0)/b)) for percent injury ([3]; R1 biotype),Parameter estimate x0 of sigmoidal model y = a/(1 + exp(−(x − x0)/b)) for percent injury ([3]; R1 biotype),"I50, estimated rate required to reduce Eleusine indica biotype by 50% (Visual Control/Injury) ([3]; R2 biotype)","I90, estimated rate required to reduce Eleusine indica biotype by 90% (Visual Control/Injury) ([3]; R2 biotype)",Parameter estimate a of sigmoidal model y = a/(1 + exp(−(x − x0)/b)) for percent injury ([3]; R2 biotype),Parameter estimate b of sigmoidal model y = a/(1 + exp(−(x − x0)/b)) for percent injury ([3]; R2 biotype),Parameter estimate x0 of sigmoidal model y = a/(1 + exp(−(x − x0)/b)) for percent injury ([3]; R2 biotype),"I50, estimated rate required to reduce Eleusine indica biotype by 50% (Visual Control/Injury) ([3]; S biotype)","I90, estimated rate required to reduce Eleusine indica biotype by 90% (Visual Control/Injury) ([3]; S biotype)",Parameter estimate a of sigmoidal model y = a/(1 + exp(−(x − x0)/b)) for percent injury ([3]; S biotype),Parameter estimate b of sigmoidal model y = a/(1 + exp(−(x − x0)/b)) for percent injury ([3]; S biotype),Parameter estimate x0 of sigmoidal model y = a/(1 + exp(−(x − x0)/b)) for percent injury ([3]; S biotype),also measured
"C#CCN1C(=O)COc2cc(F)c(N3C(=O)C4=C(CCCC4)C3=O)cc21 [Flumioxazin, flumioxazin]",13.4 nM,> 90%,16.7 nM,>90%,> 90%,0.08 kg ha^−1,0.10 kg ha^−1,96.53,0.04,−1.11,0.08 kg ha^−1,0.10 kg ha^−1,96.81,0.04,−1.11,0.08 kg ha^−1,0.09 kg ha^−1,98.00,0.02,−1.09,Variant E. indica PPO1 A212T % inhibition [4]: >90%
"CCOC(=O)C(C)OC(=O)c1cc(Oc2ccc(C(F)(F)F)cc2Cl)ccc1[N+](=O)[O-] (stereo not drawn) [Lactofen, lactofen]",362 nM,> 90%,26.4 nM,>90%,> 90%,0.04 kg ha^−1,0.51 kg ha^−1,84.65,0.29,−1.44,0.06 kg ha^−1,0.50 kg ha^−1,89.20,0.30,−1.31,0.03 kg ha^−1,0.17 kg ha^−1,90.29,0.13,−1.52,Variant E. indica PPO1 A212T % inhibition [4]: >90%
"CC(C)N(C)S(=O)(=O)NC(=O)c1cc(-n2c(=O)cc(C(F)(F)F)n(C)c2=O)c(F)cc1Cl [Saflufenacil, saflufenacil]",449 nM,> 90%,,,> 90%,,,,,,,,,,,,,,,,"IC50 [2, 5]: 19.4 nM"
"Cc1nn(-c2cc(NS(C)(=O)=O)c(Cl)cc2Cl)c(=O)n1C(F)F [Sulfentrazone, sulfentrazone]",1870 nM,76%,275 nM,,> 90%,0.15 kg ha^−1,0.32 kg ha^−1,95.12,0.12,−0.84,0.18 kg ha^−1,0.63 kg ha^−1,100.90,0.25,−0.73,0.08 kg ha^−1,0.19 kg ha^−1,98.21,0.16,−1.10,
"C#CCN1C(=O)C(F)(F)Oc2cc(F)c(-n3c(=O)n(C)c(=S)n(C)c3=O)cc21 [Trifludomoxazin, trifludimoxazin]",,,,>90%,,,,,,,,,,,,,,,,,"IC50 ([1]; recombinant enzyme, in vitro, read-out: Variant E. indica PPO1 A212T sensitivity [IC50]): 26.5 nM; IC50 [2, 5]: 17.1 nM; Variant E. indica PPO1 A212T % inhibition [4]: >90%"

# Source: US20220282271A1, “HERBICIDE RESISTANT PLANTS AND METHODS OF MAKING AND USING” (OFFICE OF INNOVATION ADVANCEMENT AND COMMERCIALIZATION, priority 2019, published 2022)
